Assay results from patent US10765662B2, “Mono- or di-substituted indole derivatives as dengue viral replication inhibitors” (Janssen Pharmaceuticals, Inc., priority 2015, dated 2020).
pEC50: −log10 of the molar value.

Assays:
[1] = tested on: DENV-2 16681 strain labeled with enhanced green fluorescent protein; assay: DENV-2 antiviral assay (eGFP fluorescence read-out in Vero cells); type: cell-based, Dengue virus; details: DENV-2 16681 eGFP, MOI 0.5, 3 days
Method: The antiviral activity of all the compounds of the invention was tested against the DENV-2 16681 strain which was labeled with enhanced green fluorescent protein (eGPF). The culture medium consists of minimal essential medium supplemented with 2% of heat-inactivated fetal calf serum, 0.04% gentamycin (50 mg/mL) and 2 mM of L-glutamine. Vero cells, obtained from ECACC, were suspended in culture medium and 25 μL was added to 384-well plates (2500 cells/well), which already contain the antiviral compounds. Typically, these plates contain a 5-fold serial dilution of 9 dilution steps of the test compound at 200 times the final concentration in 100% DMSO (200 nL). […] Finally, each plate contains wells which are assigned as virus controls (containing cells and virus in the absence of compound), cell controls (containing cells in the absence of virus and compound) and medium controls (containing medium in the absence of cells, virus and compounds). To the wells assigned as medium control, 25 μL of culture medium was added instead of Vero cells. Once the cells were added to the plates, the plates were incubated for 30 minutes at room temperature to allow the cells to distribute evenly within the wells. Next, the plates were incubated in a fully humidified incubator (37° C., 5% CO2) until the next day. Then, DENV-2 strain 16681, labeled with eGFP, was added at a multiplicity of infection (MOI) of 0.5. Therefore, 15 μL of virus suspension was added to all the wells containing test compound and to the wells assigned as virus control. In parallel, 15 μL of culture medium was added to the medium and cell controls. Next, the plates were incubated for 3 days in a fully humidified incubator (37° C., 5% CO2). At the day of the read out, the eGFP fluorescence was measured using an automated fluorescence microscope at 488 nm (blue laser). Using an in-house LIMS system, inhibition dose response curves for each compound were calculated and the half maximal effective concentration (EC50) was determined. Therefore, the percent inhibition (I) for every test concentration is calculated using the following formula: I=100*([…])/(SVC−SCC); ST, SCC and SVC are the amount of eGFP signal in the test compound, cell control and virus control wells, respectively. The EC50 represents the concentration of a compound at which the virus replication is inhibited with 50%, as measured by a 50% reduction of the eGFP fluorescent intensity compared to the virus control. The EC50 is calculated using linear interpolation (Table 1).

Vero cells = assay: in vitro; type: cell-based; details: African green monkey
Method: (§1) In parallel, the toxicity of the compounds was assessed on the same plates. Once the read-out for the eGFP signal was done, 40 μL of ATPlite, a cell viability stain, was added to all wells of the 384-well plates. ATP is present in all metabolically active cells and the concentration declines very rapidly when the cells undergo necrosis or apoptosis. The ATPLite assay system is based on the production of light caused by the reaction of ATP with added luciferase and D-luciferin. The plates were incubated for 10 minutes at room temperature. Next, the plates were measured on a ViewLux. The half maximal cytotoxic concentration (CC50) was also determined, defined as the concentration required to reduce the luminescent signal by 50% compared to that of the cell control wells. Finally, the selectivity index (SI) was determined for the compounds, which was calculated as followed: SI=CC50/EC50.

in vitro = type: cell-based; details: African green monkey, CC50
Method: as §1

[2] = Dengue virus, DENV2, Vero, 72 h

| Compound | pEC50 [1] | CC50 (Vero cells) [nM] | pEC50 [1, 2] | CC50 (in vitro) [nM] |
| --- | --- | --- | --- | --- |
| COc1cc(NC(C(=O)c2c[nH]c3ccc(C(F)(F)F)cc23)c2ccc(Cl)cc2OCCO)cc(S(C)(=O)=O)c1 (single isomer, unassigned) [Compound 9A, 2-(4-chloro-2-(2-hydroxyethoxy)phenyl)-2-((3-methoxy-5-(methylsulfonyl)phenyl)amino)-1-(5-(trifluoromethyl)-1H-indol-3-yl)ethanone] | 8.72 | 11000 |  |  |
| COc1cc(NC(C(=O)c2c[nH]c3cc(F)c(F)cc23)c2ccc(Cl)cc2OCCO)cc(S(C)(=O)=O)c1 (racemic) [Compound 7, 2-(4-chloro-2-(2-hydroxyethoxy)phenyl)-1-(5,6-difluoro-1H-indol-3-yl)-2-((3-methoxy-5-(methylsulfonyl)phenyl)amino)ethanone] |  |  | 9.59 | 2800 |
| COc1cc(NC(C(=O)c2c[nH]c3cc(OC)c(C)cc23)c2ccc(Cl)cc2OCCO)cc(S(C)(=O)=O)c1 (single isomer, unassigned) [Compound 6B, 2-(4-chloro-2-(2-hydroxyethoxy)phenyl)-2-((3-methoxy-5-(methylsulfonyl)phenyl)amino)-1-(6-methoxy-5-methyl-1H-indol-3-yl)ethanone] | 7.44 | 5900 |  |  |
| COc1cc(NC(C(=O)c2c[nH]c3c(C)c(Cl)ccc23)c2ccc(Cl)cc2OCCO)cc(S(C)(=O)=O)c1 (single isomer, unassigned) [Compound 5A, 2-(4-chloro-2-(2-hydroxyethoxy)phenyl)-1-(6-chloro-7-methyl-1H-indol-3-yl)-2-((3-methoxy-5-(methylsulfonyl)phenyl)amino)ethanone] | 8.08 |  |  | 5000 |
| COc1cc(NC(C(=O)c2c[nH]c3cc(Cl)ccc23)c2ccc(Cl)cc2OCCO)cc(S(C)(=O)=O)c1 (single isomer, unassigned) [Compound 2B, 1-(6-chloro-1H-indol-3-yl)-2-(4-chloro-2-(2-hydroxyethoxy)phenyl)-2-((3-methoxy-5-(methylsulfonyl)phenyl)amino)ethanone] | 8.31 | 11000 |  |  |
| COc1cc(NC(C(=O)c2c[nH]c3cc(F)c(C)cc23)c2ccc(Cl)cc2OCCO)cc(S(C)(=O)=O)c1 (racemic) [Compound 8, 2-(4-chloro-2-(2-hydroxyethoxy)phenyl)-1-(6-fluoro-5-methyl-1H-indol-3-yl)-2-((3-methoxy-5-(methylsulfonyl)phenyl)amino)ethanone] |  |  | 9.57 | 2800 |
| COc1cc(NC(C(=O)c2c[nH]c3cc(F)c(F)cc23)c2ccc(Cl)cc2OCCO)cc(S(C)(=O)=O)c1 (single isomer, unassigned) [Compound 7B, 2-(4-chloro-2-(2-hydroxyethoxy)phenyl)-1-(5,6-difluoro-1H-indol-3-yl)-2-((3-methoxy-5-(methylsulfonyl)phenyl)amino)ethanone] | 8.30 | 9200 |  |  |
| COc1cc(NC(C(=O)c2c[nH]c3cc(F)ccc23)c2ccc(Cl)cc2OCCO)cc(S(C)(=O)=O)c1 (single isomer, unassigned) [Compound 1B, 2-(4-chloro-2-(2-hydroxyethoxy)phenyl)-1-(6-fluoro-1H-indol-3-yl)-2-((3-methoxy-5-(methylsulfonyl)phenyl)amino)ethanone] | 8.46 | 8400 |  |  |
| COc1cc(NC(C(=O)c2c[nH]c3ccc(OC(F)(F)F)cc23)c2ccc(Cl)cc2OCCO)cc(S(C)(=O)=O)c1 (single isomer, unassigned) [Compound 10A, 2-(4-chloro-2-(2-hydroxyethoxy)phenyl)-2-((3-methoxy-5-(methylsulfonyl)phenyl)amino)-1-(5-(trifluoromethoxy)-1H-indol-3-yl)ethanone] | 8.54 |  |  | 2300 |
| COc1cc(NC(C(=O)c2c[nH]c3cc(F)ccc23)c2ccc(Cl)cc2OCCO)cc(S(C)(=O)=O)c1 (racemic) [Compound 1, 2-(4-chloro-2-(2-hydroxyethoxy)phenyl)-1-(6-fluoro-1H-indol-3-yl)-2-((3-methoxy-5-(methylsulfonyl)phenyl)amino)ethanone] |  |  | 9.37 | 5100 |
| COc1cc(NC(C(=O)c2c[nH]c3cc(OC)c(OC(F)(F)F)cc23)c2ccc(Cl)cc2OCCO)cc(S(C)(=O)=O)c1 (single isomer, unassigned) [Compound 11A, 2-(4-chloro-2-(2-hydroxyethoxy)phenyl)-2-((3-methoxy-5-(methylsulfonyl)phenyl)amino)-1-(6-methoxy-5-(trifluoromethoxy)-1H-indol-3-yl)ethanone] | 8.82 |  |  | > 2300 |
| COc1cc(NC(C(=O)c2c[nH]c3ccc(OC(F)(F)F)cc23)c2ccc(Cl)cc2OCCO)cc(S(C)(=O)=O)c1 (racemic) [Compound 10, 2-(4-chloro-2-(2-hydroxyethoxy)phenyl)-2-((3-methoxy-5-(methylsulfonyl)phenyl)amino)-1-(5-(trifluoromethoxy)-1H-indol-3-yl)ethanone] |  |  | 10.00 | > 2400 |
| COc1cc(NC(C(=O)c2c[nH]c3c(C)cc(OC(F)(F)F)cc23)c2ccc(Cl)cc2OCCO)cc(S(C)(=O)=O)c1 (racemic) [Compound 12, 2-(4-chloro-2-(2-hydroxyethoxy)phenyl)-2-((3-methoxy-5-(methylsulfonyl)phenyl)amino)-1-(7-methyl-5-(trifluoromethoxy)-1H-indol-3-yl)ethanone] |  |  | 10.00 | 2500 |
| COc1cc(NC(C(=O)c2c[nH]c3c(C)c(F)ccc23)c2ccc(Cl)cc2OCCO)cc(S(C)(=O)=O)c1 (single isomer, unassigned) [Compound 4B, 2-(4-chloro-2-(2-hydroxyethoxy)phenyl)-1-(6-fluoro-7-methyl-1H-indol-3-yl)-2-((3-methoxy-5-(methylsulfonyl)phenyl)amino)ethanone] | 7.96 | 5700 |  |  |
| COc1cc(NC(C(=O)c2c[nH]c3cc(OC)c(C)cc23)c2ccc(Cl)cc2OCCO)cc(S(C)(=O)=O)c1 (racemic) [Compound 6, 2-(4-chloro-2-(2-hydroxyethoxy)phenyl)-2-((3-methoxy-5-(methylsulfonyl)phenyl)amino)-1-(6-methoxy-5-methyl-1H-indol-3-yl)ethanone] |  |  | 9.43 | 4700 |
| COc1cc(NC(C(=O)c2c[nH]c3c(C)cc(OC(F)(F)F)cc23)c2ccc(Cl)cc2OCCO)cc(S(C)(=O)=O)c1 (single isomer, unassigned) [Compound 12A, 2-(4-chloro-2-(2-hydroxyethoxy)phenyl)-2-((3-methoxy-5-(methylsulfonyl)phenyl)amino)-1-(7-methyl-5-(trifluoromethoxy)-1H-indol-3-yl)ethanone] | 8.30 |  |  | 2500 |
| COc1cc(NC(C(=O)c2c[nH]c3cc(OC)ccc23)c2ccc(Cl)cc2OCCO)cc(S(C)(=O)=O)c1 (single isomer, unassigned) [Compound 3B, 2-(4-chloro-2-(2-hydroxyethoxy)phenyl)-1-(6-methoxy-1H-indol-3-yl)-2-((3-methoxy-5-(methylsulfonyl)phenyl)amino)ethanone] | 7.25 | 13000 |  |  |
| COc1cc(NC(C(=O)c2c[nH]c3cc(F)c(C)cc23)c2ccc(Cl)cc2OCCO)cc(S(C)(=O)=O)c1 (single isomer, unassigned) [Compound 8B, 2-(4-chloro-2-(2-hydroxyethoxy)phenyl)-1-(6-fluoro-5-methyl-1H-indol-3-yl)-2-((3-methoxy-5-(methylsulfonyl)phenyl)amino)ethanone] | 8.77 | > 2400 |  |  |
